Legend:
KRas^Q61H = KRas^Q61H (Homo sapiens, UniProt P01116, Q61H); experiment: biochemical
KRas^G12S = biological target: T1, KRas^G12S (Homo sapiens, UniProt P01116, G12S); experiment: KRas binding assay (TR-FRET displacement of Cy5 labelled tracer)
T1 construct: […]; biotin (biotinylated); purchased Accelegan Inc

KRas^G12V = biological target: T2, KRas^G12V (Homo sapiens, UniProt P01116, G12V); experiment: as above
T2 construct: […]; biotin (biotinylated); purchased Accelegan Inc

KRas^G12C = KRas^G12C (Homo sapiens, UniProt P01116, G12C); experiment: biochemical
KRas^WT = biological target: T3, KRas^WT (Homo sapiens, UniProt P01116); experiment: KRas binding assay (TR-FRET displacement of Cy5 labelled tracer)
T3 construct: […]; biotin (biotinylated); purchased Accelegan Inc

KRas^G12D = biological target: T4, KRas^G12D (Homo sapiens, UniProt P01116, G12D); experiment: as above
T4 construct: […]; biotin (biotinylated); purchased Accelegan Inc

KRas^G13D = KRas^G13D (Homo sapiens, UniProt P01116, G13D); experiment: biochemical
KRas^G12R = biological target: T5, KRas^G12R (Homo sapiens, UniProt P01116, G12R); experiment: KRas binding assay (TR-FRET displacement of Cy5 labelled tracer)
T5 construct: […]; biotin (biotinylated); purchased Accelegan Inc

KRas^G12A = biological target: T6, KRas^G12A (Homo sapiens, UniProt P01116, G12A); experiment: as above
T6 construct: […]; biotin (biotinylated); purchased Accelegan Inc
T6 sequence (P01116 1-169 isoform P01116-2 G12A): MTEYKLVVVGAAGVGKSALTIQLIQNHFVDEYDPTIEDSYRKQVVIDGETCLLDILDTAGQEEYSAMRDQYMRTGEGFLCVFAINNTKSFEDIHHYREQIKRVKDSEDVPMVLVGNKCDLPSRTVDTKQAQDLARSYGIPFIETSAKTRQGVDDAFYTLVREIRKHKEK

T5 sequence (P01116 1-169 isoform P01116-2 G12R): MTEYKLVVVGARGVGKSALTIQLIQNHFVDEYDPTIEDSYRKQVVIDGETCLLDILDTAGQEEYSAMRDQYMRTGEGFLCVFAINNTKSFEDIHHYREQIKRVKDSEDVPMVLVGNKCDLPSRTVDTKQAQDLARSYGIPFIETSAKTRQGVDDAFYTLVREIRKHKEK
T3 sequence (P01116 1-169 isoform P01116-2): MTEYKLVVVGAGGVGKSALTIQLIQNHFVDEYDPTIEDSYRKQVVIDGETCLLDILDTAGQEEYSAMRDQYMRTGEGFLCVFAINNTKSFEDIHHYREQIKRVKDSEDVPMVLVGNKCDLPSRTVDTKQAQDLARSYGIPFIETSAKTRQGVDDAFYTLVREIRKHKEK
KRas^Q61H, sequence (P01116 1-169 isoform P01116-2 Q61H): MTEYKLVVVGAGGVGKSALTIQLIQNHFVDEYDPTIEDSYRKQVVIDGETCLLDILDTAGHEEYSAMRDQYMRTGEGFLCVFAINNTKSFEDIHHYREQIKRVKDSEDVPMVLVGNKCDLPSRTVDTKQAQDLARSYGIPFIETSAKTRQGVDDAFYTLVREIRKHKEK
KRas^G13D, sequence (P01116 1-169 isoform P01116-2 G13D): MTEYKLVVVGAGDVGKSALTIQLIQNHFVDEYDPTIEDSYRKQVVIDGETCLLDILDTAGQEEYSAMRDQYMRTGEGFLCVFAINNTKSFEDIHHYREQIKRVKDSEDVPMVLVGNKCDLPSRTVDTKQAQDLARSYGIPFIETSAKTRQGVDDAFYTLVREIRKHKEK
T2 sequence (P01116 1-169 isoform P01116-2 G12V): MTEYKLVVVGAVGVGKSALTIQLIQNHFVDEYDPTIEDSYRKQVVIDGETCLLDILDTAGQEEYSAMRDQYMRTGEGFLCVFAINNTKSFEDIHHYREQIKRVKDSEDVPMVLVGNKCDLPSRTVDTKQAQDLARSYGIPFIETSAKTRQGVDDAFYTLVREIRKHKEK
KRas^G12C, sequence (P01116 1-169 isoform P01116-2 G12C): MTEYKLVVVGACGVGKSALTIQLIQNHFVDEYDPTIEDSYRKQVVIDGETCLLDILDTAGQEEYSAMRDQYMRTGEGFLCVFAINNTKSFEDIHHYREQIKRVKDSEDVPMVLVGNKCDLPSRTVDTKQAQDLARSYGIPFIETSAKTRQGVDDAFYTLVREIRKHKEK
T1 sequence (P01116 1-169 isoform P01116-2 G12S): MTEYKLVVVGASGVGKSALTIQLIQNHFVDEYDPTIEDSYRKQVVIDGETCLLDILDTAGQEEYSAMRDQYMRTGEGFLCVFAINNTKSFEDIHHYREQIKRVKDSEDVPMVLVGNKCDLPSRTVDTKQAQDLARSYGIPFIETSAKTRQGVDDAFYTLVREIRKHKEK
T4 sequence (P01116 1-169 isoform P01116-2 G12D): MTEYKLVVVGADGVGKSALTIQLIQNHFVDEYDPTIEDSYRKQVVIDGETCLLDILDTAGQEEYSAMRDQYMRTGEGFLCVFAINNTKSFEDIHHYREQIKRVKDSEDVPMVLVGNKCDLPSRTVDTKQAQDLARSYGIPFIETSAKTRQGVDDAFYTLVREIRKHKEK

| IC50 (KRas^Q61H) [nM] | IC50 (KRas^G12S) [nM] | IC50 (KRas^G12V) [nM] | IC50 (KRas^G12C) [nM] | IC50 (KRas^WT) [nM] | IC50 (KRas^G12D) [nM] | IC50 (KRas^G13D) [nM] | IC50 (KRas^G12R) [nM] | IC50 (KRas^G12A) [nM] | SMILES |
| --- | --- | --- | --- | --- | --- | --- | --- | --- | --- |
| 325 | 342 | 295 | 348 | 232 | 532 | 247 | 279 | 303 | CCc1cccc2cccc(N3CCc4c(nc(OCC56CCCN5CCC6)nc4N4CCC(O)CC(C)C4)C3)c12 (stereo not drawn) [Example 92, 1-(7-(8-ethylnaphthalen-1-yl)-2-((tetrahydro-1H-pyrrolizin-7a(5H)-yl)methoxy)-5,6,7,8-tetrahydropyrido[3,4-d]pyrimidin-4-yl)-6-methylazepan-4-ol] |
| 1240 | 698 | 701 | 256 | 678 | 2620 | 1100 | 234 | 427 | CCc1cccc2cccc(N3CCc4c(nc(OCC56CCCN5CCC6)nc4N4CCCC(c5n[nH]c(C)n5)C4)C3)c12 (stereo not drawn) [Example 93, 7-(8-ethylnaphthalen-1-yl)-4-(3-(5-methyl-1H-1,2,4-triazol-3-yl)piperidin-1-yl)-2-((tetrahydro-1H-pyrrolizin-7a(5H)-yl)methoxy)-5,6,7,8-tetrahydropyrido[3,4-d]pyrimidine] |
| 757 | 883 | 1290 | 525 | 860 | 2120 | 699 | 244 | 793 | CCc1cccc2cccc(N3CCc4c(nc(OCC56CCCN5CCC6)nc4N4CCCC(n5ccc(C)n5)C4)C3)c12 (stereo not drawn) [Example 94, 7-(8-ethylnaphthalen-1-yl)-4-(3-(3-methyl-1H-pyrazol-1-yl)piperidin-1-yl)-2-((tetrahydro-1H-pyrrolizin-7a(5H)-yl)methoxy)-5,6,7,8-tetrahydropyrido[3,4-d]pyrimidine] |
| 343 | 953 | 990 | 656 | 255 | 4700 | 254 | 724 | 655 | CCc1cccc2cccc(N3CCc4c(nc(OCC56CCCN5CCC6)nc4N4CCCN(C(N)=O)CC4)C3)c12 [Example 95, 4-(7-(8-ethylnaphthalen-1-yl)-2-((tetrahydro-1H-pyrrolizin-7a(5H)-yl)methoxy)-5,6,7,8-tetrahydropyrido[3,4-d]pyrimidin-4-yl)-1,4-diazepane-1-carboxamide] |
| 400 | 520 | 567 | 558 | 321 | 1160 | 336 | 499 | 484 | CCc1cccc2cccc(N3CCc4c(nc(OCC56CCCN5CCC6)nc4N4C[C@@H](C)C[C@H](O)C4)C3)c12 [Example 97, (3S,5S)-1-(7-(8-ethylnaphthalen-1-yl)-2-((tetrahydro-1H-pyrrolizin-7a(5H)-yl)methoxy)-5,6,7,8-tetrahydropyrido[3,4-d]pyrimidin-4-yl)-5-methylpiperidin-3-ol] |
| 537 | 482 | 341 | 330 | 444 | 1070 | 629 | 514 | 453 | CCc1cccc2cccc(N3CCc4c(nc(OCC56CCCN5CCC6)nc4N(C)CC4(O)CC4)C3)c12 [Example 98, 1-(((7-(8-ethylnaphthalen-1-yl)-2-((tetrahydro-1H-pyrrolizin-7a(5H)-yl)methoxy)-5,6,7,8-tetrahydropyrido[3,4-d]pyrimidin-4-yl)(methyl)amino)methyl)cyclopropan-1-ol] |
| 1130 | 1250 | 958 | 1000 | 1240 | 3010 | 1560 | 338 | 1250 | CCc1cccc2cccc(N3CCc4c(nc(OCC56CCCN5CCC6)nc4N4CCCC(c5ccno5)C4)C3)c12 (stereo not drawn) [Example 99, 5-(1-(7-(8-ethylnaphthalen-1-yl)-2-((tetrahydro-1H-pyrrolizin-7a(5H)-yl)methoxy)-5,6,7,8-tetrahydropyrido[3,4-d]pyrimidin-4-yl)piperidin-3-yl)isoxazole] |
| 1400 | 1430 | 2030 | 828 | 1140 | 4420 | 1370 | 339 | 1010 | CCc1cccc2cccc(N3CCc4c(nc(OCC56CCCN5CCC6)nc4N4CCCC(c5ccn(C)n5)C4)C3)c12 (stereo not drawn) [Example 100, 7-(8-ethylnaphthalen-1-yl)-4-(3-(1-methyl-1H-pyrazol-3-yl)piperidin-1-yl)-2-((tetrahydro-1H-pyrrolizin-7a(5H)-yl)methoxy)-5,6,7,8-tetrahydropyrido[3,4-d]pyrimidine] |
| 740 | 383 | 546 | 355 | 515 | 1210 | 673 | 400 | 487 | CCc1cccc2cccc(N3CCc4c(nc(OCC56CCCN5CCC6)nc4N4CC(O)C(O)C(O)C4)C3)c12 (stereo not drawn) [Example 101, 1-(7-(8-ethylnaphthalen-1-yl)-2-((tetrahydro-1H-pyrrolizin-7a(5H)-yl)methoxy)-5,6,7,8-tetrahydropyrido[3,4-d]pyrimidin-4-yl)piperidine-3,4,5-triol] |
| 424 | 3090 | 6450 | 2990 | 357 | 15000 | 363 | 3080 | 805 | CCc1cccc2cccc(N3CCc4c(nc(OCC56CCCN5CCC6)nc4N4CCCN(C(=O)c5ccco5)CC4)C3)c12 [Example 102, (4-(7-(8-ethylnaphthalen-1-yl)-2-((tetrahydro-1H-pyrrolizin-7a(5H)-yl)methoxy)-5,6,7,8-tetrahydropyrido[3,4-d]pyrimidin-4-yl)-1,4-diazepan-1-yl)(furan-2-yl)methanone] |
| 690 | 791 | 1390 | 427 | 718 | 2580 | 691 | 364 | 785 | CCc1cccc2cccc(N3CCc4c(nc(OCC56CCCN5CCC6)nc4N4CCOC(CC(N)=O)C4)C3)c12 (stereo not drawn) [Example 103, 2-(4-(7-(8-ethylnaphthalen-1-yl)-2-((tetrahydro-1H-pyrrolizin-7a(5H)-yl)methoxy)-5,6,7,8-tetrahydropyrido[3,4-d]pyrimidin-4-yl)morpholin-2-yl)acetamide] |
| 1980 | 1120 | 852 | 894 | 1590 | 4200 | 1800 | 365 | 755 | CCc1cccc2cccc(N3CCc4c(nc(OCC56CCCN5CCC6)nc4N4CCCC(c5nc(=O)[nH][nH]5)C4)C3)c12 (stereo not drawn) [Example 104, 5-(1-(7-(8-ethylnaphthalen-1-yl)-2-((tetrahydro-1H-pyrrolizin-7a(5H)-yl)methoxy)-5,6,7,8-tetrahydropyrido[3,4-d]pyrimidin-4-yl)piperidin-3-yl)-1,2-dihydro-3H-1,2,4-triazol-3-one] |
| 600 | 385 | 368 | 457 | 469 | 607 | 566 | 461 | 382 | CCc1cccc2cccc(N3CCc4c(nc(OCC56CCCN5CCC6)nc4N4CC(C)CC(C(N)=O)C4)C3)c12 (stereo not drawn) [Example 105, 1-(7-(8-ethylnaphthalen-1-yl)-2-((tetrahydro-1H-pyrrolizin-7a(5H)-yl)methoxy)-5,6,7,8-tetrahydropyrido[3,4-d]pyrimidin-4-yl)-5-methylpiperidine-3-carboxamide] |
| 1460 | 752 | 1300 | 369 | 1420 | 2230 | 1070 | 1790 | 628 | CCc1cccc2cccc(N3CCc4c(nc(OCC56CCCN5CCC6)nc4N4CCCC(c5nnc6n5CCC6)C4)C3)c12 (stereo not drawn) [Example 106, 4-(3-(6,7-dihydro-5H-pyrrolo[2,1-c][1,2,4]triazol-3-yl)piperidin-1-yl)-7-(8-ethylnaphthalen-1-yl)-2-((tetrahydro-1H-pyrrolizin-7a(5H)-yl)methoxy)-5,6,7,8-tetrahydropyrido[3,4-d]pyrimidine] |
| 528 | 535 | 406 | 487 | 369 | 1450 | 465 | 638 | 423 | CCc1cccc2cccc(N3CCc4c(nc(OCC56CCCN5CCC6)nc4N4CCCC(CO)CC4)C3)c12 (stereo not drawn) [Example 107, (1-(7-(8-ethylnaphthalen-1-yl)-2-((tetrahydro-1H-pyrrolizin-7a(5H)-yl)methoxy)-5,6,7,8-tetrahydropyrido[3,4-d]pyrimidin-4-yl)azepan-4-yl)methanol] |

Reference: patent US12421253B2 (Mirati Therapeutics, Inc., priority 2020, dated 2025)
